Tests used:
Assay in all cases: Kinase selectivity, DiscoverX scanMAX Kinase assay panel (% control)
Assay type in all cases: binding
[1] = molecular target: T1, kinases of the scanMAX Kinase assay panel (Homo sapiens, UniProt Q9H2K8); conditions: kinase TAOK3; 1 uM in DMSO
T1 construct: purchased DiscoverX Co. (contract measurement) scanMAX Kinase assay panel
T1 sequence (Q9H2K8 1-898): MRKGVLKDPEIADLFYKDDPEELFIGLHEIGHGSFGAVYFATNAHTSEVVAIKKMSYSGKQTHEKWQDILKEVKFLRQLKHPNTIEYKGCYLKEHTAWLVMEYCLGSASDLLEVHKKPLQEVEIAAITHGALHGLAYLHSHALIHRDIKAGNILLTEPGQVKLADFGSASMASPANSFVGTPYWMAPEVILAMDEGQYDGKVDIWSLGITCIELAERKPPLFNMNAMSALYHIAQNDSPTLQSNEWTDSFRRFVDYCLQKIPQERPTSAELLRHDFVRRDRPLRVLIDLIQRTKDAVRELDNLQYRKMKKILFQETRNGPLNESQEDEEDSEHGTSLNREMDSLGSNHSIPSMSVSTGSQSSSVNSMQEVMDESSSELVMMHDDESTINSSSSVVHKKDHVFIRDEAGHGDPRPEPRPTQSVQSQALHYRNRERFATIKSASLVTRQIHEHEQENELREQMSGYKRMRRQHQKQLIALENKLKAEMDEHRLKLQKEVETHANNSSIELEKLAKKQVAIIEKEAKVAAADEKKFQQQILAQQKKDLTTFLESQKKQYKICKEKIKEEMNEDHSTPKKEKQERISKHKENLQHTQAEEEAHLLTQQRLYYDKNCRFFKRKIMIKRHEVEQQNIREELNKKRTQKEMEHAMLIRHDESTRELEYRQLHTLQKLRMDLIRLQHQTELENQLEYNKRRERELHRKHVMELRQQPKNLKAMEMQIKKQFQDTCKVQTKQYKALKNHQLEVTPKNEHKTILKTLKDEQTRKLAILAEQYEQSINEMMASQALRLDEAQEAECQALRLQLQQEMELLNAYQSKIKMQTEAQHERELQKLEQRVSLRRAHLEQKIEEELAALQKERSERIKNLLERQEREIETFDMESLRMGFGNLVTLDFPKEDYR
Procedure, shortened: (§1)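 Compounds were tested at 1 uM (in DMSO) against each panel kinase. % control was calculated as (compound − positive control)/(negative control − positive control)×100, where the positive control gives 0% and DMSO gives 100%. Activity toward a kinase was called at % control <35%.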

[2] = molecular target: T2, kinases of the scanMAX Kinase assay panel (Homo sapiens, UniProt P68400); conditions: CSNK2A1; 1 uM
T2 construct: purchased DiscoverX Co. (contract measurement) scanMAX Kinase assay panel
T2 sequence (P68400 whole entry): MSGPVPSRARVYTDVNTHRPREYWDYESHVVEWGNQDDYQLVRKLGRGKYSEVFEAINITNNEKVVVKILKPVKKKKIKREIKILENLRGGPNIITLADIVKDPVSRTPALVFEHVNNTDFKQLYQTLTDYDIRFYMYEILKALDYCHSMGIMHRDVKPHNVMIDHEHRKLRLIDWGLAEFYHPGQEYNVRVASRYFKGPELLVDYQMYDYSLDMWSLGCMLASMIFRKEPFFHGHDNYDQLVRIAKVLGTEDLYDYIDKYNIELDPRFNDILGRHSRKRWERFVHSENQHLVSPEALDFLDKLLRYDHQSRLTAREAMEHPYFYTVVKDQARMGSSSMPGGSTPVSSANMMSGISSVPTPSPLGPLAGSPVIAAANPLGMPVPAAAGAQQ
Procedure, shortened: as §1

[3] = molecular target: T3, kinases of the scanMAX Kinase assay panel (Homo sapiens, UniProt Q08881); conditions: ITK; 1 uM
T3 construct: purchased DiscoverX Co. (contract measurement) scanMAX Kinase assay panel
T3 sequence (Q08881 1-620): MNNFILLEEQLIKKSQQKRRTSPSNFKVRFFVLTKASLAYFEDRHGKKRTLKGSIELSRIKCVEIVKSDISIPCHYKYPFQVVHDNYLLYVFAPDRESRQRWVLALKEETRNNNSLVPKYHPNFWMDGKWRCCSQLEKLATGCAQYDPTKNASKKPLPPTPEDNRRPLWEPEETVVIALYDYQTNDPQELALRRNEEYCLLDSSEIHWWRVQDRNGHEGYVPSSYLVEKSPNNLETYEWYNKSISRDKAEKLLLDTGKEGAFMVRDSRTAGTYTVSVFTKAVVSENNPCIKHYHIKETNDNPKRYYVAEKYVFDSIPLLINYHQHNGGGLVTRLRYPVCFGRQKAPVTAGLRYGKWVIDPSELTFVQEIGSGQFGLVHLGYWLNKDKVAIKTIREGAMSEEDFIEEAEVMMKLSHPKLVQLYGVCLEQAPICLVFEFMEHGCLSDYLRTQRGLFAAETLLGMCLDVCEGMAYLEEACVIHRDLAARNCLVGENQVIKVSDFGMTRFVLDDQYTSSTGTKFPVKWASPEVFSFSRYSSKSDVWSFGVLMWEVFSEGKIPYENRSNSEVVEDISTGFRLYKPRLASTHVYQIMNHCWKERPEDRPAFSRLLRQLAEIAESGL
Procedure, shortened: as §1

[4] = molecular target: T4, kinases of the scanMAX Kinase assay panel (Homo sapiens, UniProt Q9UPZ9); conditions: ICK; 1 uM
T4 construct: purchased DiscoverX Co. (contract measurement) scanMAX Kinase assay panel
T4 sequence (Q9UPZ9 1-632): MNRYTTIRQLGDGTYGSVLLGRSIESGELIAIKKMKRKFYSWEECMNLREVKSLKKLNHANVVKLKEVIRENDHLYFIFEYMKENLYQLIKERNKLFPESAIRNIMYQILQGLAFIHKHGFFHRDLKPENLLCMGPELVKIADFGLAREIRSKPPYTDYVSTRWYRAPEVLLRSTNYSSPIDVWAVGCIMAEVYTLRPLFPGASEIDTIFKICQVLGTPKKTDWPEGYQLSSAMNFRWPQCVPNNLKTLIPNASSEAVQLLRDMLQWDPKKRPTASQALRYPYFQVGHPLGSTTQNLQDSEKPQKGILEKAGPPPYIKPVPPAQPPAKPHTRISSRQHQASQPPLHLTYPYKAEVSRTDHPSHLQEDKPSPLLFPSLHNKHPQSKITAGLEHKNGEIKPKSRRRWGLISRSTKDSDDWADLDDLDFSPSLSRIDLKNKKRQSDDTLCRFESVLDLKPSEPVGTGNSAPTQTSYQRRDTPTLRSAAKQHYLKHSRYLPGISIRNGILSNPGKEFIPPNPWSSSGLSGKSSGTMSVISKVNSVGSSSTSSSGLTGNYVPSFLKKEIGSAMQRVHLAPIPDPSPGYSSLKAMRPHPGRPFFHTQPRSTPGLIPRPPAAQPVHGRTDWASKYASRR
Procedure, shortened: as §1

[5] = molecular target: T5, kinases of the scanMAX Kinase assay panel (Homo sapiens, UniProt P49137); conditions: MAPKAPK2; 1 uM
T5 construct: purchased DiscoverX Co. (contract measurement) scanMAX Kinase assay panel
T5 sequence (P49137 whole entry): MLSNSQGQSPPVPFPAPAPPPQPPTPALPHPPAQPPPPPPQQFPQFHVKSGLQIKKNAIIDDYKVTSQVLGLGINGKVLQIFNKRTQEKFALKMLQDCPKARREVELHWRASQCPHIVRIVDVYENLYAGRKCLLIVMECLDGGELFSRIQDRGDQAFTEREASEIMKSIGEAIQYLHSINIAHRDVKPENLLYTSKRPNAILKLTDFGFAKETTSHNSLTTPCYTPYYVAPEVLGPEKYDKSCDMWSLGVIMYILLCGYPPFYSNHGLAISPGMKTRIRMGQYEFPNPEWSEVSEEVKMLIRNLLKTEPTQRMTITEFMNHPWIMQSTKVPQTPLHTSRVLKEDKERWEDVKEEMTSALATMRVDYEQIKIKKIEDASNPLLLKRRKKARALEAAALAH
Procedure, shortened: as §1

[6] = molecular target: T6, kinases of the scanMAX Kinase assay panel (Homo sapiens, UniProt Q52WX2); conditions: kinase SBK1; 1 uM in DMSO
T6 construct: purchased DiscoverX Co. (contract measurement) scanMAX Kinase assay panel
T6 sequence (Q52WX2 whole entry): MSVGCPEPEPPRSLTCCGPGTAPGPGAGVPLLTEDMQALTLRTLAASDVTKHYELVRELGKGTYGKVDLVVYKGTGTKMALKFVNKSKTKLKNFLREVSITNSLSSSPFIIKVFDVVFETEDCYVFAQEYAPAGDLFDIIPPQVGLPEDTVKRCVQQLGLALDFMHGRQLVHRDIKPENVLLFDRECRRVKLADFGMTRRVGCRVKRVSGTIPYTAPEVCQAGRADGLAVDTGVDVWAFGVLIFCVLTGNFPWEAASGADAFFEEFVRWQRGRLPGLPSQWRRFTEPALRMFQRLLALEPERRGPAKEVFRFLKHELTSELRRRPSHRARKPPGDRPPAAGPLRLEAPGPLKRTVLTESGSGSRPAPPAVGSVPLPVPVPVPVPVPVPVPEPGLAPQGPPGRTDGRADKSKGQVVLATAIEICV
Procedure, shortened: as §1

[7] = molecular target: T7, kinases of the scanMAX Kinase assay panel (Homo sapiens, UniProt Q9BWU1); conditions: CDK11; 1 uM
T7 construct: purchased DiscoverX Co. (contract measurement) scanMAX Kinase assay panel
T7 sequence (Q9BWU1 whole entry): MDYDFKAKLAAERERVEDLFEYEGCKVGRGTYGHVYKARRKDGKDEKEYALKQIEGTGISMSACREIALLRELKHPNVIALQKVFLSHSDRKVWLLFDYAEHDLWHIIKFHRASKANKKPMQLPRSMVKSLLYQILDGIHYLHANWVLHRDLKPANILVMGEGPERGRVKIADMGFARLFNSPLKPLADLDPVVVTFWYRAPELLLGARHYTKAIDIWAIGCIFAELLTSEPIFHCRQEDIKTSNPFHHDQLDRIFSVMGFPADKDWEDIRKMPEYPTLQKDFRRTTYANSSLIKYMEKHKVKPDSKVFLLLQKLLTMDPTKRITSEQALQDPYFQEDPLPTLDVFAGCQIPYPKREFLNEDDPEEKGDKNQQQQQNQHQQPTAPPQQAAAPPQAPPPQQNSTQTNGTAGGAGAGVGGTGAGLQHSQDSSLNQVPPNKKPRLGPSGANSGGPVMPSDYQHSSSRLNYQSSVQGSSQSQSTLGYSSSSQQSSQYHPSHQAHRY
Procedure, shortened: as §1

| SMILES | remaining binding at 1 µM [1] [%] | remaining binding at 1 µM [2] [%] | remaining binding at 1 µM [3] [%] | remaining binding at 1 µM [4] [%] | remaining binding at 1 µM [5] [%] | remaining binding at 1 µM [6] [%] | remaining binding at 1 µM [7] [%] |
| --- | --- | --- | --- | --- | --- | --- | --- |
| CNc1nc(Nc2ccc(C(=O)N3CCOCC3)cc2OC)nc2[nH]cc(C#N)c12 [Example 1, 2-((2-methoxy-4-(morpholine-4-carbonyl)phenyl)amino)-4-(methylamino)-7H-pyrrolo[2,3-d]pyrimidine-5-carbonitrile] | 81 | 59 | 99 | 73 | 4.6 | 72 | 87 |
| CC1(Nc2nc(Nc3cnn([C@H]4CCN(C5COC5)C[C@@H]4F)c3Cl)nc3[nH]cc(C#N)c23)CC1 [Example 52, 2-((5-chloro-1-((3S,4S)-3-fluoro-1-(oxetane-3-yl)piperidine-4-yl)-1H-pyrazole-4-yl)amino)((1-methylcyclopropyl)amino)-7H-pyrrolo[2,3-d]pyrimidine-5-carbonitrile] | 8.6 | 24 | 9.7 | 71 | 70 | 21 | 100 |
| CCNc1nc(Nc2ccc(C(=O)N3CCC(N4CCOCC4)CC3)cc2OC)nc2[nH]cc(C(F)(F)F)c12 [Example 104, (4-((4-(ethylamino)-5-(trifluoromethyl)-7H-pyrrolo[2,3-d]pyrimidine-2-yl)amino)-3-methoxyphenyl)(4-morpholinopiperidine-1-yl)methanone] | 81 | 73 | 100 | 96 | 24 | 100 | 96 |

Reference: patent publication US11208412B2 (DAEGU-GYEONGBUK MEDICAL INNOVATION FOUNDATION, priority 2017, dated 2021)
